# Article PMC11558128 (Advanced Science, 2024)
# Positions of bridges follow the written chain, without caps; N, C: chain ends. Residues, ends and D or L forms follow the SMILES beside them.
# Experiments:
# [1] = target: T1, rKv4.2 D281N (Rattus norvegicus, UniProt Q63881, D281N); assay: Patch clamp of rKv4.2 mutant D281N; assay type: cell-based; details: mean ± SEM
# T1 construct: expressed in transfected cells; host or cells: HEK293T
# [2] = test system: C57BL/6 mice; assay: Open field test; assay type: in vivo, mouse; details: 2 mg kg-1 i.p.; 2 min; vs saline; n = 4, p = 0.2000
# Procedure: Open Field Test: The C57BL/6 mice (weight 18–20 g, 6–8 weeks, both sex) were randomly assigned to one of two groups: Saline (2 males and 2 females) and 2 mg kg^−1 mGpTx1‐SA (2 males and 2 females). All mice received intraperitoneal administration of the respective substances and were allowed 20 min for the drugs to take effect. Following drug administration, the mice were individually placed in square transparent chambers (50 × 50 cm). They were allowed to explore freely under normal light. The movements and trajectories of the mice were recorded using video and computer systems over a 2‐minute period for subsequent analysis.
# T1 sequence (Q63881 whole entry D281N): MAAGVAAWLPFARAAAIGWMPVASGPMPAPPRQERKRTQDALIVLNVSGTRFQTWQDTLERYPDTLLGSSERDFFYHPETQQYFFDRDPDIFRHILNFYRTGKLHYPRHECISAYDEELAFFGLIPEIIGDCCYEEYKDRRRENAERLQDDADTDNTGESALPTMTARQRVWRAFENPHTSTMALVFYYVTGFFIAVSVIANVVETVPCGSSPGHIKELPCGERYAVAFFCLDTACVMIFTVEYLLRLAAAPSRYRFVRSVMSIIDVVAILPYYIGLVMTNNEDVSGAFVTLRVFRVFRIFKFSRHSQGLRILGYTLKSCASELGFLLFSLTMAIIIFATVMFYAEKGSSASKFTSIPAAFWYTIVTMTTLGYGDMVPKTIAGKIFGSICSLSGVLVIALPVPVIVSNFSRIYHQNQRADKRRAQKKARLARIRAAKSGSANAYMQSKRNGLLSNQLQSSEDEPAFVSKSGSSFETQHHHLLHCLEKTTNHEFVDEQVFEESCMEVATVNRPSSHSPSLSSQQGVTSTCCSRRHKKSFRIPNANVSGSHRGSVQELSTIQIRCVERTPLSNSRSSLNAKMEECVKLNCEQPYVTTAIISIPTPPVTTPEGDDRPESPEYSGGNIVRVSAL
SMILES,IC50 [1] [nM],"exploratory and locomotor behavior, open-field test [2]"
"CC(C)C[C@H](NC(=O)[C@H](Cc1ccc(O)cc1)NC(=O)[C@@H](NC(=O)[C@H](CCCCN)NC(=O)[C@@H]1CSSC[C@@H]2NC(=O)[C@H](CCC(=O)O)NC(=O)[C@H](CC(N)=O)NC(=O)[C@H](CCCCN)NC(=O)CNC(=O)[C@@H]3CCCN3C(=O)[C@H]([C@@H](C)O)NC(=O)[C@@H]3CSSC[C@H](NC(=O)[C@H](C)NC(=O)[C@H](Cc4ccc(O)cc4)NC(=O)[C@H](CC(N)=O)NC(=O)[C@@H]4CCCN4C(=O)[C@H](CSSC[C@H](NC(=O)CN)C(=O)N[C@@H](CCCCN)C(=O)NCC(=O)N[C@@H](Cc4ccccc4)C(=O)NCC(=O)N[C@@H](CC(=O)O)C(=O)N[C@@H](CO)C(=O)N3)NC2=O)C(=O)N[C@@H](CO)C(=O)N[C@@H](CO)C(=O)N[C@@H](CCCCN)C(=O)N[C@@H](Cc2c[nH]cn2)C(=O)N[C@@H](CCCCN)C(=O)N[C@@H](Cc2c[nH]c3ccccc23)C(=O)N1)C(C)C)C(N)=O [HNTX-III] (H-GCKGFGDSCTPGKNECCPNYACSSKHKWCKVYL-NH2; disulfide 2-17, 9-22, 16-29)",131 ± 32,
"CC[C@H](C)[C@@H]1NC(=O)[C@@H]2CSSC[C@@H]3NC(=O)[C@H](C(C)C)NC(=O)[C@H](CC(C)C)NC(=O)[C@H](CC(N)=O)NC(=O)[C@@H]4CCCN4C(=O)[C@H](CCCNC(=N)N)NC(=O)[C@H](CSSC[C@H](NC(=O)[C@@H](N)CC(=O)O)C(=O)N[C@@H](CC(C)C)C(=O)NCC(=O)N[C@@H](C)C(=O)N[C@@H](Cc4ccccc4)C(=O)N[C@@H](CCCNC(=N)N)C(=O)N[C@@H](CCCCN)C(=O)N2)NC(=O)[C@H](CSSC[C@@H](C(=O)N[C@@H](CCCCN)C(=O)N[C@@H](Cc2ccc(O)cc2)C(=O)N[C@H](C(=O)N[C@@H](Cc2ccccc2)C(N)=O)C(C)C)NC(=O)[C@H](Cc2c[nH]c4ccccc24)NC(=O)[C@H](CCCNC(=N)N)NC(=O)[C@H](Cc2c[nH]cn2)NC(=O)[C@H](C)NC(=O)[C@H](CO)NC(=O)[C@H](CO)NC3=O)NC(=O)[C@H](CCCCN)NC(=O)[C@H](CC(=O)O)NC(=O)[C@H](CC(N)=O)NC(=O)[C@H](CC(=O)O)NC(=O)[C@@H]2CCCN2C1=O [mGpTx1-SA] (H-DCLGAFRKCIPDNDKCCRPNLVCSSAHRWCKYVF-NH2; disulfide 2-17, 9-23, 16-30)",,did not influence significantly
